# The source made the active and inactive calls. The calls are words filed in the database; no cut-off is given here.
# Assays:
# L6 = assay: Cytotoxicity against rat L6 cells after 70 hrs by alamar blue assay; assay type: cell-based; settings: L6, 70 h
# [1] = system: Trypanosoma brucei rhodesiense; assay: Antitrypanosomal activity against bloodstream Trypanosoma brucei rhodesiense STIB 900 after 70 hrs by alamar blue assay; assay type: functional, organism-based; settings: STIB 900, 70 h
# [2] = system: Trypanosoma brucei brucei; assay: Induction of reactive oxygen species generation in Trypanosoma brucei brucei MITat1,2,variant 221 at 10 uM preincubated for 24 hrs by CM-H2DCFDA fluorescence assay
# [3] = system: Trypanosoma brucei brucei; assay: Induction of reactive oxygen species generation in Trypanosoma brucei brucei MITat1,2,variant 221 at 1 uM preincubated for 24 hrs by CM-H2DCFDA fluorescence assay
# [4] = system: Trypanosoma brucei brucei; assay: Induction of reactive oxygen species generation in Trypanosoma brucei brucei MITat1,2,variant 221 at 0.1 uM preincubated for 24 hrs by CM-H2DCFDA fluorescence assay
# [5] = Selectivity index, ratio of IC50 for rat L6 cells to IC50 for bloodstream Trypanosoma brucei rhodesiense STIB 900; assay type: toxicity, cell-based; settings: read-out: Ratio IC50
# Mus musculus = assay: Toxicity in Trypanosoma brucei STIB795 infected in NMRI mouse African trypanosomiasis model assessed as overt signs of at 50 mg/kg, ip qd administered for 4 consecutive days from day 3 to 6 postinfection measured up to 30 days; settings: in vivo, 720 h
# [6] = system: Trypanosoma brucei brucei; assay: Induction of reactive oxygen species generation in Trypanosoma brucei brucei MITat1,2,variant 221 preincubated for 24 hrs by CM-H2DCFDA fluorescence assay
# [7] = system: Trypanosoma brucei brucei; assay: Antitrypanosomal activity against Trypanosoma brucei brucei STIB 795 infected in NMRI mouse African trypanosomiasis model assessed as parasite free mouse survival at 50 mg/kg, ip qd administered for 4 consecutive days from day 3 to 6 postinfection measured up to 30 days
# [8] = system: Trypanosoma brucei brucei; assay: Antitrypanosomal activity against Trypanosoma brucei brucei STIB 795 infected in NMRI mouse African trypanosomiasis model assessed as parasite free mouse survival at 10 mg/kg, ip qd administered for 4 consecutive days from day 3 to 6 postinfection measured up to 30 days; settings: STIB795
Compound,IC50 (L6; read-out: IC50) [µM],IC50 [1] [µM],selectivity ratio [5],other results
CC(=O)Oc1ccc2c(c1)N(Cc1ccccc1)C(C)(C)C=C2C,71,4.4,16,Activity [2]: inactive; Activity [3]: inactive; Activity [4]: inactive
COc1cc(OC)cc(C(=O)Oc2ccc3c(c2)C(C)=CC(C)(C)N3Cc2ccccc2)c1,24,0.023,1000,
COc1cccc(COc2ccc3c(c2)C(C)=CC(C)(C)N3)c1,61,11,5,
COc1cc(CN2c3ccc(O)cc3C(C)=CC2(C)C)cc(OC)c1,11,0.14,83,
COc1cccc(CN2c3ccc(OC(C)=O)cc3C(C)=CC2(C)C)c1,29,0.32,91,
CC(=O)Oc1ccc2c(c1)C(C)=CC(C)(C)N2Cc1ccc(C#N)cc1,29,0.26,110,
CC1=CC(C)(C)Nc2ccc(OCc3cccc(C(F)(F)F)c3)cc21,45,8.8,5,
CC1=CC(C)(C)N(Cc2ccccc2)c2ccccc21,110,57,2,Activity [2]: inactive; Activity [3]: inactive; Activity [4]: inactive
CC1=CC(C)(C)N(Cc2ccccc2)c2ccc(O)cc21,6.8,0.007,970,
COc1cc(CN2c3ccc(OC(C)=O)cc3C=CC2(C)C)cc(OC)c1,10,0.2,50,
CC(=O)Oc1ccc2c(c1)C(C)=CC(C)(C)N2Cc1cccc(Cl)c1,29,0.039,740,
CC(=O)Oc1ccc2c(c1)C(C)=CC(C)(C)N2Cc1ccc(Cl)cc1,22,0.18,120,
CC(=O)Oc1ccc2c(c1)C(C)=CC(C)(C)N2Cc1ccc(C)cc1,21,0.39,54,
CC1(C)C=Cc2cc(O)ccc2N1Cc1ccccc1,5.5,0.13,42,
CC1=CC(C)(C)Nc2ccc(OCc3ccc(C(F)(F)F)cc3)cc21,48,4.5,11,
CC1=CC(C)(C)Nc2ccc(O)cc21,18,0.78,23,
COc1cc([C@@H]2c3cc4c(cc3[C@H](O)[C@H]3COC(=O)[C@H]23)OCO4)cc(OC)c1OC [PODOFILOX],,,,IC50 (L6): 0.012 µM
COc1cc(OC)cc(C(=O)Oc2ccc3c(c2)C(C)=CC(C)(C)N3Cc2ccc(Cl)cc2)c1,> 190,0.048,> 3900,
CC1=CC(C)(C)N(Cc2cccc(C(F)(F)F)c2)c2ccc(OCc3cccc(C(F)(F)F)c3)cc21,> 180,3.6,> 50,

Compound,IC50 (L6; read-out: IC50) [µM],IC50 [1] [µM],selectivity ratio [5],other results
O=C(Oc1ccc2ncccc2c1)c1ccc2c(c1)OCO2,40,80,0.5,
Nc1nc(N)nc(Nc2ccc([As]3SCC(CO)S3)cc2)n1 (stereo not drawn) [MELARSOPROL],7.9,0.008,1000,
CC1=CC(C)(C)Nc2ccc(OC(=O)c3ccc4c(c3)OCO4)cc21,29,0.3,99,
CC(=O)Oc1ccc2c(c1)C(C)=CC(C)(C)N2Cc1ccc(Cl)c(Cl)c1,28,0.053,530,
CC(=O)Oc1ccc2c(c1)C(C)=CC(C)(C)N2Cc1cccc(C(F)(F)F)c1,27,0.041,660,
CC1=CC(C)(C)N(Cc2ccc(Cl)cc2)c2ccc(O)cc21,7.9,0.061,130,
CC(=O)Oc1ccc2c(c1)C(C)=CC(C)(C)N2C(C)=O,160,5.3,29,
CC(=O)Oc1ccc2c(c1)C(C)=CC(C)(C)N2Cc1ccc(C(F)(F)F)cc1,14,0.36,39,
CC(=O)Oc1ccc2c(c1)C(C)=CC(C)(C)N2Cc1ccccc1,24,0.014,1700,Activity (Mus musculus): Non-toxic; Activity [6]: Dose-dependent effect; Survival ([7]; route intraperitoneal): >14 days
CC1=CC(C)(C)N(Cc2ccccc2)c2ccc(OC(=O)c3ccccc3)cc21,> 240,0.013,> 18000,
CC1=CC(C)(C)N(Cc2ccc(C(F)(F)F)cc2)c2ccc(OCc3ccc(C(F)(F)F)cc3)cc21,> 180,86,> 2,
CC1=CC(C)(C)Nc2ccc(OCc3ccccc3)cc21,56,4.1,14,
CC1=CC(C)(C)N(Cc2ccccc2)c2ccc(OC(=O)C(C)(C)C)cc21,170,0.028,6000,
COc1ccccc1COc1ccc2c(c1)C(C)=CC(C)(C)N2,48,5.3,9,
COc1ccc(CN2c3ccc(O)cc3C(C)=CC2(C)C)cc1,6.2,0.17,37,
COc1ccc(CN2c3ccc(OC(C)=O)cc3C(C)=CC2(C)C)cc1,15,0.048,310,
COc1ccc(COc2ccc3c(c2)C(C)=CC(C)(C)N3)cc1,77,5.2,15,
CC1=CC(C)(C)N(Cc2ccncc2)c2ccc(O)cc21,13,0.34,39,
CC(=O)Oc1ccc2c(c1)C(C)=CC(C)(C)N2Cc1cccc(C)c1,28,0.34,82,

Compound,IC50 (L6; read-out: IC50) [µM],IC50 [1] [µM],selectivity ratio [5],other results
CC(=O)Oc1ccc2c(c1)C(C)=CC(C)(C)N2Cc1ccc(C(C)(C)C)cc1,9,0.67,13,
COc1cc(CN2c3ccc(OC(C)=O)cc3C(C)=CC2(C)C)cc(OC)c1,25,0.1,240,
N=C(N)c1ccc(/N=N/Nc2ccc(C(=N)N)cc2)cc1,,,,Activity [8]: Active
COc1cc(COc2ccc3c(c2)C(C)=CC(C)(C)N3)cc(OC)c1,68,13,5,
CC1=CC(C)(C)Nc2ccc(OCCc3ccccc3)cc21,83,3.7,22,
CC1=CC(C)(C)N(Cc2ccccn2)c2ccc(O)cc21,18,1.1,17,
COc1cccc(COc2ccc3c(c2)C(C)=CC(C)(C)N3Cc2cccc(OC)c2)c1,> 210,63,> 3,
CC1=CC(C)(C)Nc2ccc(OC(=O)c3cccc(C(=O)Oc4ccc5c(c4)C(C)=CC(C)(C)N5)c3)cc21,63,< 0.008,> 7800,
CC1=CC(C)(C)N(Cc2ccccc2)c2ccc(OC(=O)Cc3ccccc3)cc21,160,0.015,11000,
COc1cc(OC)cc(C(=O)Oc2ccc3c(c2)C(C)=CC(C)(C)N3Cc2ccc(C)cc2)c1,> 200,0.033,> 6000,
CC(=O)Oc1ccc2c(c1)C(C)=CC(C)(C)N2C,41,1.4,29,
CC(=O)Oc1ccc2c(c1)C(C)=CC(C)(C)N2Cc1ccc(F)cc1,29,0.041,710,Activity (Mus musculus): Non-toxic; Survival ([7]; route intraperitoneal): 8.75 days
CC(=O)Oc1ccc2c(c1)C(C)=CC(C)(C)N2Cc1cccc(C#N)c1,31,0.18,170,Activity (Mus musculus): Non-toxic; Survival ([7]; route intraperitoneal): 9.25 days
COc1cc(OC)cc(C(=O)Oc2ccc3c(c2)C(C)=CC(C)(C)N3)c1,16,0.054,300,Survival [7]: inactive
COc1cc(OC)cc(C(=O)Oc2ccc3ncccc3c2)c1,200,89,2,
CC1=CC(C)(C)N(Cc2ccccc2)c2ccc(OC(=O)C3CCCCC3)cc21,> 230,0.028,> 8200,
CC1=CC(C)(C)N(Cc2ccc(C)cc2)c2ccc(O)cc21,8.1,0.058,140,
CCCCCCCC(=O)Oc1ccc2c(c1)C(C)=CC(C)(C)N2Cc1ccccc1,220,0.017,13000,

# From ChEMBL document CHEMBL1154763, “Antitrypanosomal activity of 1,2-dihydroquinolin-6-ols and their ester derivatives” (J Med Chem, 2010)
